# Source: US6022879A, “Bathocuproine treatment of neurologic disease” (priority 1998, dated 2000)
# Assays:
# [1] = target: T1, human Cu,Zn superoxide dismutase (SOD), FALS mutant A4V (Homo sapiens, UniProt P00441, A5V); experiment: Reduction of enzyme-bound copper of SOD by a reductant, monitored spectrally at 680 nm; type: biochemical; conditions: Kpi pH 7.4, 37 degrees C
# T1 construct: made in house; host or cells: E. coli BL21(DE3) plysS, pET-3d
# Protocol: (§1) SODs were present at a subunit concentration of 0.43 mM in 0.5 ml of 0.1 mM Kpi, pH 7.4 at 37 degrees C. Ascorbate (0.5 mM) was added at time zero and reduction was monitored spectrally at 680 nm for 1 hr.
# (§2) SODs were present at a subunit concentration of 0.43 mM in 0.5 ml of 0.1 mM Kpi, pH 7.4 at 37 degrees C. H2 O2 (0.4 mM) was added at time zero and reduction was monitored spectrally at 680 nm for 5 minutes.
# (§3) For more than two years the notion that FALS SODs could act as peroxidases and generate hydroxyl radical has been a subject of debate. However, H2 O2 can rapidly reduce Cu,Zn SOD and generate superoxide as a byproduct. (It is the addition of a second molecule of H2 O2 to give --OH that is extremely slow and of questionable significance). […] For example, it is possible to assess superoxide production from reduced SOD using the tetranitromethane (TNM) capture assay described by Hodgson and Fridovich (7).
# [2] = target: T2, human Cu,Zn superoxide dismutase (SOD), FALS mutant D90A (Homo sapiens, UniProt P00441, D91A); experiment: as above; type: biochemical; conditions: Kpi pH 7.4, 37 degrees C
# T2 construct: made in house; host or cells: E. coli BL21(DE3) plysS, pET-3d
# Protocol: as §1, §2, §3
# [3] = target: T3, human Cu,Zn superoxide dismutase (SOD), FALS mutant G93A (Homo sapiens, UniProt P00441, G94A); experiment: as above; type: biochemical; conditions: Kpi pH 7.4, 37 degrees C
# T3 construct: made in house; host or cells: E. coli BL21(DE3) plysS, pET-3d
# Protocol: as §1, §2, §3
# [4] = target: T4, human Cu,Zn superoxide dismutase (SOD), wild type (Homo sapiens, UniProt P00441); experiment: as above; type: biochemical; conditions: Kpi pH 7.4, 37 degrees C
# T4 construct: made in house; host or cells: E. coli
# Protocol: as §1, §2, §3
# [5] = target: T5, human Cu,Zn superoxide dismutase (SOD), site-directed mutant D124N (Asp124 to Asn, model zinc-deficient SOD) (Homo sapiens, UniProt P00441, D125N); experiment: Reduction of enzyme-bound copper of SOD by a reductant, monitored spectrally at 680 nm (stopped-flow for ascorbate); type: biochemical
# T5 construct: made in house; host or cells: E. coli
# Protocol: To circumvent this problem, a site-directed human SOD mutant was prepared wherein aspartate124 was changed to asparagine (D124N).
# as §1, §2, §3
# [6] = test system: G93A transgenic mice (overexpress human G93A ALS SOD mutant); experiment: Bathocuproine in ALS SOD transgenic mice: onset and progression of paralysis; type: in vivo, mouse; conditions: intraperitoneal in soybean oil, daily 0.51 mg/100 g body weight, from 190 day old G93A mice
# Protocol: Neither the overall efficiency nor the kinetics of Cu+1 removal was altered by sulfonic acid substituents on the ring(s) of the parent bathocuproine compound. Thus, the sulfonic acid groups serve mainly to increase water solubility and are not fundamental to copper binding activity. The unsubstituted parent compound, bathocuproine, is very lipid soluble and much more likely to cross the blood-brain barrier. In G93A transgenic mice, bathocuproine was dissolved in soybean oil and injected intraperitoneally at a daily dose of 0.51 mg/100 g body weight. Assuming uniform tissue distribution and fluid fraction equal to 0.7 of the mouse's body weight, this dose should give a cellular concentration of 20 µM or roughly a 4-fold molar excess over SOD protein concentration. […] After onset, paralysis progresses rapidly up the trunk and is ultimately fatal within about 14 days. Bathocuproine injections is initiated in 190 day old mice and the mice are observed for onset and progression of paralysis relative to untreated littermates. […] A group of non-transgenic mice are also injected to control for potential toxicities from bathocuproine itself.
# [7] = 0.5 mM ascorbate, SOD subunit 0.43 mM, 1 hr
# [8] = 0.4 mM H2O2, SOD subunit 0.43 mM, 5 minutes
# T5 sequence (P00441 whole entry D125N): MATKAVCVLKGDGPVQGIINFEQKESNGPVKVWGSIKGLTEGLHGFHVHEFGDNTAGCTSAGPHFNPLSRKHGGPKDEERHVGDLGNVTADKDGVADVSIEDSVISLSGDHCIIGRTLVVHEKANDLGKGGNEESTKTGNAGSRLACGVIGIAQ
# T1 sequence (P00441 whole entry A5V): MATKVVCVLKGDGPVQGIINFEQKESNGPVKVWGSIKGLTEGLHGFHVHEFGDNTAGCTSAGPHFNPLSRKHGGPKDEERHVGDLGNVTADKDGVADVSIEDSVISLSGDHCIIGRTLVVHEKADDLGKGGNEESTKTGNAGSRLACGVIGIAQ
# T2 sequence (P00441 whole entry D91A): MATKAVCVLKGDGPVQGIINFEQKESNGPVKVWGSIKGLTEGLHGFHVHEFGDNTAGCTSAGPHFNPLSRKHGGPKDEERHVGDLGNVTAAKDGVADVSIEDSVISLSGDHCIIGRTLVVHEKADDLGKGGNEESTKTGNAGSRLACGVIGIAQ
# T4 sequence (P00441 whole entry): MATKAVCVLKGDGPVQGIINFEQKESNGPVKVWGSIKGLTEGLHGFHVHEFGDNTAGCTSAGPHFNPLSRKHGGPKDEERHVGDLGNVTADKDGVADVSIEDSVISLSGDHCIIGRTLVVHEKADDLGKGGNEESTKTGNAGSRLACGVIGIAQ
# T3 sequence (P00441 whole entry G94A): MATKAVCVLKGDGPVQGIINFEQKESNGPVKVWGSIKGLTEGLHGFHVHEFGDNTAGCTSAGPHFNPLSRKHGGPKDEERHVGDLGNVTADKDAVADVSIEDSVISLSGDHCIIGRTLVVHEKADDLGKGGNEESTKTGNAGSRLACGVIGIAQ
smiles,measurement,setting,value
"O=C1O[C@H]([C@@H](O)CO)C(O)=C1O [ascorbate, ascorbic acid]",t1/2 for reduction of SOD copper by ascorbate,[1]; [7],1550 s
same,t1/2 for reduction of ascorbate,[2]; [7],1770 s
same,t1/2 for reduction of ascorbate,[3]; [7],1240 s
same,t1/2 for reduction by ascorbate,"[4]; 0.5 mM ascorbate, SOD subunit 0.43 mM",1700 s
same,rate of ascorbate-mediated reduction relative to wild-type SOD,"[5]; 0.5 mM ascorbate, D124N versus wild-type",~200 fold
same,t1/2 for reduction of SOD copper by ascorbate,"[5]; 0.5 mM ascorbate, SOD subunit 0.43 mM, Kpi pH 7.4, 37 degrees C, stopped-flow spectroscopy",8.9 s
Cc1cc(-c2ccccc2)c2ccc3c(-c4ccccc4)cc(C)nc3c2n1 [bathocuproine],onset and progression of paralysis relative to untreated littermates,[6],delay of onset or slowing of progression is shown
"OO [H2 O2, hydrogen peroxide]",t1/2 for reduction by H2 O2,[1]; [8],21.2 s
same,t1/2 for reduction by H2 O2,[2]; [8],30.9 s
same,t1/2 for reduction by H2 O2,[3]; [8],24.2 s
same,t1/2 for reduction by H2 O2,[4]; [8],30.5 s
same,t1/2 for reduction by H2 O2,"[5]; 0.4 mM H2O2, SOD subunit 0.43 mM, Kpi pH 7.4, 37 degrees C, 680 nm, 5 minutes",26.7 s
